Assay results from patent publication US10653667B2, “Drug for preventing, treating or preventing metastasis of giant cell tumor that occurs in bone or soft parts, chondrosarcoma, or osteosarcoma, local injection for arterial embolization, and artificial bone” (NIPPON CHEMIPHAR CO., LTD, priority 2013, dated 2020).
Read-outs that look alike come from different tables or passages of the source.

Experiments:
H-EMC-SS cells [1] = assay: Proliferation of H-EMC-SS cells cultured beforehand with PPARγ siRNA or control siRNA; type: cell-based, human; details: 400 μM zaltoprofen
Procedure: Cells of the human chondrosarcoma cell line, H-EMC-SS, were cultured in the same manner as that of Example 1 until they became sub-confluent, PPARγ siRNA (Dharmacon, catalog number M-003436-02-0005) that selectively suppresses expression of PPARγ, or a control siRNA (Dharmacon, catalog number D-001206-14-05) was added to the cells at a final concentration of 100 nM, and the cells were cultured for 48 hours. Then, 400 μM zaltoprofen was added to the cells, color development was performed with Cell Counting Kit-8 (CCK-8, Dojindo) 24 hours thereafter, absorbance was measured at 450 nm further 3 hours thereafter, and the absorbance observed with the pretreatment with PPARγ siRNA was compared with the absorbance observed with the pretreatment with the control siRNA (FIG. 70).

OUMS-27 cells = assay: Proliferation of OUMS-27 cells cultured beforehand with or without GW9662; type: cell-based, human; details: GW9662 1 μM, 60 minutes beforehand
Procedure: Cells of the human chondrosarcoma cell line, OUMS-27, were cultured in the same manner as that of Example 1 until they became sub-confluent, then GW9662 (Sigma Aldrich, M6191), which is an irreversible antagonist of PPARγ, was added to the cells at a final concentration of 1 μM, and the cells were cultured for 60 minutes.

H-EMC-SS cells [2] = assay: Suppression of cell proliferation of chondrosarcoma cell line H-EMC-SS (CCK-8); type: cell-based, human; details: drug at various concentrations
Description: The H-EMC-SS cells were obtained from the Riken BioResource Center.
The H-EMC-SS cells were obtained from the Riken BioResource Center. As the SW1353 cells, those obtained from ATCC were used.

H-EMC-SS cells [3] = details: inventors' earlier reports; cited from earlier work
HOS cells = assay: Suppression of proliferation of human bone sarcoma cell line HOS (CCK-8); type: cell-based; details: 72 hours
Procedure: Cells of the human bone sarcoma cell line, HOS (purchased from American Type Culture Collection), were cultured in the same manner as that of Example 1 until they became sub-confluent. Zaltoprofen was added to the cells at concentrations of 25, 50, 100, 200 and 400 μM, color development was performed with Cell Counting Kit-8 (CCK-8, Dojindo) 72 hours thereafter, and absorbance was measured at 450 nm further 3 hours thereafter (FIG. 72).

[4] = system: PPARγ expression in cells of giant cell tumor of tendon sheath (GCTT); assay: PPARγ immunostaining of GCTT cells; type: cell-based, human; details: zaltoprofen 400 μM or troglitazone 200 μM
[5] = system: cells of pigmented villonodular synovitis (PVNS); assay: Fat cell differentiation of PVNS cells (HCS LipidTOX Green); type: cell-based, human; details: zaltoprofen 400 μM, compared with control
Procedure: It has been reported that PPARγ is a transcription factor indispensable for fat cell differentiation. Therefore, the GCTB cultured cells of the aforementioned case 1 were cultured on chamber cover slide glass, and when they reached confluent, zaltoprofen was added to the cells at various concentrations (10, 50, and 100 μM). From 24 hours thereafter, the cells were cultured in a fat cell differentiation-inducing medium (STREMPRO Adipogenesis Differentiation Kit, Invitrogen) for 7 to 14 days, and differentiation into fat cells was analyzed with HCS Lipid TOX Green Neutral Lipid Stain (Invitrogen) (FIGS. 8 and 9).
It has been reported that PPARγ is a transcription factor indispensable for fat cell differentiation. Therefore, in the same manner as that of Example 3, zaltoprofen was added at a concentration of 400 μM to the cells of giant cell tumor of tendon sheath (GCTT) or cells of pigmented villonodular synovitis (PVNS), and differentiation into fat cells was analyzed (FIGS. 30 and 31). As a result, it was successfully confirmed that the positive images obtained with HCS LipidTOX Green increased in the zaltoprofen-added cells compared with the control.

SW1353 cells = assay: Cell migration of human chondrosarcoma cell line SW1353; type: cell-based; details: 72 hours
Procedure: The analysis of cell migration was performed by using a 6-well plate of TPP according to the method described in Takeuchi A, et al., Cancer Science, 104:740-749, 2013 (Low molecular weight heparin suppresses receptor for advanced glycation end products-mediated expression of malignant phenotype in human fibrosarcoma cells). Cells of the human chondrosarcoma cell line, SW1353, were cultured in the same manner as that of Example 1 until they became sub-confluent, and the cells were delaminated in a width of 1 mm using a micropipette tip (200 μl). […] Then, area of the cells migrated to the region where the cells were delaminated was measured by using Image J software (http://rsb.info.nih.gov/ij/index.html) (FIGS. 73 and 74).

giant cell tumor of bone = assay: Curative effect of zaltoprofen (Soleton Tablet) on patients with giant cell tumor of bone; type: in vivo, human
Procedure: Soleton Tablet 80 (generic name: zaltoprofen, 80 mg, Nippon Chemiphar) was administered to a patient with giant cell tumor of bone (GCTB), patient with giant cell tumor of tendon sheath (GCTT), or patient with pigmented villonodular synovitis (PVNS) at a dose of 3 tablets per day (one tablet was administered in the morning, at noon, and in the evening), and the tumor size was evaluated by MRI every several months.
Soleton Tablet 80 (generic name: zaltoprofen, 80 mg, Nippon Chemiphar) was administered to patients with giant cell tumor of bone at a dose of 3 tablets per day (one tablet was administered in the morning, at noon, and in the evening). Four weeks after the start of the administration, the tumor size was evaluated by imaging based on simple Roentgen contrast method, X-ray CT, and MRI (nuclear magnetic resonance imaging). Then, the tumors were excised from patients for whom surgical operation was possible, administration of zaltoprofen was continued at a dose of 240 mg per day (one 80 mg tablet was administered at the time of breakfast, lunch, and supper), and the tumor size was evaluated by imaging based on simple Roentgen contrast method, X-ray CT, and MRI (nuclear magnetic resonance imaging) every 16 weeks. Also for patients for whom surgical operation was difficult, administration of zaltoprofen was continued at a dose of 240 mg per day (one 80 mg tablet was administered at the time of breakfast, lunch, and supper), and the tumor size was evaluated by imaging based on simple Roentgen contrast method, X-ray CT, and MRI (nuclear magnetic resonance imaging) every 8 weeks.

[6] = among the 13 cases of GCTB, zaltoprofen 240 mg per day

Compound: CC(C(=O)O)c1ccc2c(c1)CC(=O)c1ccccc1S2 (centres unmarked) [zaltoprofen]
- suppression of proliferation of H-EMC-SS cells (H-EMC-SS cells [1]; 24 hours): suppressed proliferation
- cell proliferation-suppressing action with PPARγ siRNA (H-EMC-SS cells [1]; H-EMC-SS, PPARγ siRNA 100 nM 48 hours): completely eliminated
- cell proliferation-suppressing action after preincubation with GW9662 (OUMS-27 cells): reduced by GW9662
- suppression of cell proliferation (absorbance at 450 nm) (H-EMC-SS cells [2]): cell proliferation was suppressed
- suppression of proliferation of H-EMC-SS cells (H-EMC-SS cells [3]): suppress proliferation
- suppression of proliferation of HOS cells (HOS cells; 400 μM zaltoprofen): about 60%
- suppression of cell proliferation of HOS cells (HOS cells; at 100 μM, 200 μM and 400 μM, concentration-dependent (25-400 μM tested)): suppressed
- expression of PPARγ (PPARγ-positive images) [4]: expression of PPARγ was successfully observed
- positive images obtained with HCS LipidTOX Green (differentiation into fat cells) [5]: increased
- suppression of cell migration of SW1353 cells (SW1353 cells; 400 μM zaltoprofen): about 40%
- suppression of cell migration of SW1353 cells (SW1353 cells; all set concentrations, concentration-dependent): suppressed the cell migration
- response evaluation (giant cell tumor of bone; GCTB case a): PR (“partial response (PR)” means a state that the total of sizes of tumor has decreased by 30% or more)
- shrinkage of tumor size (giant cell tumor of bone; GCTB case a (person, pelvis)): more than 70%
- recurrence after excision by surgical operation (giant cell tumor of bone; GCTB case a, up to today): no recurrence has been observed
- diameter of the giant cell tumor of bone after taking zaltoprofen (giant cell tumor of bone; GCTB case c, proximal part of left fibula, about nine weeks, 23.3 mm before): 21.0 mm
- diameter of the giant cell tumor of bone after taking zaltoprofen (giant cell tumor of bone; GCTB case d, distal part of right tibia, about eight weeks, 21.7 mm before): 20.5 mm
- change of giant cell tumor of bone (giant cell tumor of bone; GCTB case g): did not shrink, but it also did not grow
- KPS score after taking zaltoprofen (giant cell tumor of bone; GCTB case g, score 80 before): 100
- growth of the giant cell tumor of bone (giant cell tumor of bone; GCTB case j (Zometa and artery embolization used in combination)): about 6%
- KPS score after taking zaltoprofen (giant cell tumor of bone; GCTB case j, score 50 before): 90
- growth of the giant cell tumor of bone (giant cell tumor of bone; GCTB case k): about 10%
- KPS score after taking zaltoprofen (giant cell tumor of bone; GCTB case k, score 80 before): 90
- increase of the size of the giant cell tumor of bone (giant cell tumor of bone; GCTB case l (printed case 1; left knee part), took only about a half of the prescribed dose): 19.8%
- response evaluation (giant cell tumor of bone; GCTB case m (printed case in; person, proximal part of right tibia, multiple metastases to the lung)): PD (“progressive disease (PD)” means a state that the total of sizes of tumor has increased by 20% or more, and increased by 5 mm or more in terms of absolute value, or a state that new lesion has appeared)
- KPS score after taking zaltoprofen (giant cell tumor of bone; GCTB case m, score 90 before): 100
- number of cases with hardening of bones on X-ray CT images (giant cell tumor of bone; GCTB cases a, b, d, g, i, and j): 6 cases
- KPS score after taking zaltoprofen (giant cell tumor of bone; GCTB cases a, c, and d, score 80 before): 90
- change of giant cell tumors of bone (giant cell tumor of bone; GCTB cases a, c, d, e, and f, no treatment except zaltoprofen): shrank
- new metastasis during the taking of zaltoprofen (giant cell tumor of bone; GCTB patients): any new metastasis of giant cell tumor of bone was not observed
- recurrence during the taking of zaltoprofen after ablative operation (giant cell tumor of bone; GCTB patients subjected to ablative operation): no recurrence of giant cell tumor of bone could be confirmed
- number of cases diagnosed partial response (PR) (giant cell tumor of bone; [6]): one
- number of cases diagnosed progressive disease (PD) (giant cell tumor of bone; [6]): one
- cases in which the KPS score worsened (giant cell tumor of bone; cases of giant cell tumor of bone who took zaltoprofen): no case in which the KPS score worsened
- MRI finding indicated by arrows (giant cell tumor of bone; recurrence of GCTB in the pelvic part (case a), after two months (FIG. 35) and four months (FIG. 36)): tumor necrosis region
- tumor size by MRI (giant cell tumor of bone; recurrence of GCTB in the pelvic part (person; case a), 3 tablets per day, after two months and four months): gradual shrinkage of the tumor
